# Measurements taken from ChEMBL document CHEMBL2429858, “Five new degraded diterpenoids from Trigonostemon xyphophylloides” (Bioorg Med Chem Lett, 2013).
# What was measured:
# [1] = tested on: SGC-7901; assay: Cytotoxicity against human SGC7901 cells after 48 hrs by MTT assay; assay type: functional, cell-based; conditions: SGC-7901, 48 h
# [2] = Cytotoxicity against human SPCA1 cells after 48 hrs by MTT assay; assay type: functional, cell-based; conditions: SPCA1, 48 h
SMILES,IC50 [1],IC50 [2]
CO[C@@]12[C@H](COC(N)=O)C3=C(C(=O)C(C)=C(N)C3=O)N1C[C@@H]1N[C@@H]12 [MITOMYCIN],2.05 µM,1.68 µM
COc1c(O)c(C)cc2c1C1=CC(=O)C(C)(C)C1=CC2=O [TRIGOXYPHIN N],5 µM,4.08 µM
